In publication PMC8219695 (Nature Communications, 2021):
Where “and” joins values, the source holds several entries; their conditions need not be identical. Equal entries are not always repeated.

Experiments:
rKOR = target: T1, rKOR (Rattus norvegicus, UniProt P34975); test: CAMYEL BRET antagonism assay at rKOR (inhibition of U-50,488); assay type: cell-based; conditions: inhibition of reference agonist U50,488 (EC80)
T1 construct: expressed in transfected cells

WT C57 and MOR KO mice = test: Tail-flick in wild-type and MOR KO mice; assay type: in vivo, mouse; conditions: individual animals
Procedure: CD1 mice (n = 10), at peak analgesic time point. […] Dose–response curves of 22 (s.c.), in the tail-flick assay was evaluated 15 min post drug administration in WT, C57 mice (n = 8) and MOR KO mice (n = 5). Each point represents mean ± SEM.
To confirm that the low-efficacy analgesia is driven by MOR, and no other targets or mechanisms (e.g., other opioid receptors or non-opioid off-targets), we performed the mouse tail-flick assay in wild-type (WT), and MOR knockout (MOR KO) mice with the same genetic background (Fig. 9e).
For analgesic testing in KO animals, wild-type, male C57BL/6 mice (22–33 g), 10–12 weeks were purchased from the Jackson Lab (Bar Harbor, ME). These mice were kept at a constant temperature of 22 ± 2 °C, and relative humidity was maintained at 40–50%. Exon-1/Exon-11 MOR-1 KO mice on a C57 background were bred in the Pintar laboratory at Rutgers University. All mice were maintained on a 12-hour light/dark cycle with food and water available ad libitum, and housed in groups of five until testing. All testing was done in the light cycle.
Analgesia was tested in wild-type and MOR KO animals by the radiant heat tail-flick technique using an IITC Model 33 Tail Flick Analgesia Meter as previously described. The intensity was set to achieve a baseline between 2 and 3 s. Tail-flick antinociception was assessed as an increase in baseline latency, with a maximal 10 s latency to minimize damage to the tail. Data were analyzed as percent maximal effect, % MPE, which was calculated according to the formula: % MPE [(observed latency − baseline latency)/(maximal latency − baseline latency)] × 100. Compounds were administered s.c. as indicated in the figures, and analgesia was assessed at the peak effect (15 min). Mice were tested for analgesia with cumulative subcutaneous doses of the drug until the mouse can withstand the maximal latency. Once the mouse reached the maximal latency, the mouse was no longer given higher doses. In vivo experiments were evaluated using GraphPad Prism 8, San Diego, CA as described above. […]
dilution series was prepared for the desired doses of 0.1, 0.3, 1, 3, and 10 mg/kg (concentrations 0.01 mg/mL, 0.03 mg/mL, 0.1 mg/mL, 0.3 mg/mL, and 1 mg/mL respectively). Solutions were filtered through a PTFE 0.45μm syringe filter and administered s.c. at a max volume of 300μL.
Tail Flick (Dose – response)
Tail flick antinociception was determined using the radiant heat tail flick technique using an Ugo Basile model 37360 instrument as previously described.21,22 The intensity was set to achieve a baseline between 2 and 3 s. Baseline latencies were determined before experimental treatments for all mice. Tail flick antinociception was assessed as an increase in baseline latency, with a maximal 15 s latency to minimize damage to the tail. Data were analyzed as percent maximal effect, %MPE, and was calculated according to the formula: % MPE = [(observed latency – baseline latency)/(maximal latency – baseline latency)] × 100.
Compounds were injected subcutaneously (s.c.) and antinociception was assessed at the peak effect. Mice were tested for analgesia with cumulative subcutaneous doses of the drug until the mouse can withstand the maximal latency. Once the mouse reached the maximal latency, the mouse was no longer given higher doses. The analgesia experiments were performed by blinding the experimenter to the identity of 7OH versus 11-F-7OH. In vivo experiments were evaluated using GraphPad Prism 8, San Diego, CA as described […]
Analgesia was tested in wild-type and MOR KO animals by the radiant heat tail-flick technique using an IITC Model 33 Tail Flick Analgesia Meter as previously described.23 The intensity was set to achieve a baseline between 2 and 3 s. Tail flick antinociception was assessed as an increase in baseline latency, with a maximal 10 s latency to minimize damage to the tail. Data were analyzed as percent maximal effect, %MPE, which was calculated according to the formula: % MPE [(observed latency − baseline […]

T1 sequence (P34975 whole entry): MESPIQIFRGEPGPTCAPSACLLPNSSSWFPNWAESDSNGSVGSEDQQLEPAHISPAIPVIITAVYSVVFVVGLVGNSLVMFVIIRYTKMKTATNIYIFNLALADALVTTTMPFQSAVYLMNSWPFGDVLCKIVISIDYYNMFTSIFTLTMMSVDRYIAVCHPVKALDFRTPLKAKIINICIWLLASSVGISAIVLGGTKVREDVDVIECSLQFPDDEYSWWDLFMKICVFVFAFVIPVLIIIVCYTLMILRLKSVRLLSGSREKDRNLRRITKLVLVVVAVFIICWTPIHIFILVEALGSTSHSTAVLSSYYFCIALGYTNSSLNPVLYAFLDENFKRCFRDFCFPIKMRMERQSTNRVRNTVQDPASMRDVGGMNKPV

For `CC[C@@H]1CN2CC[C@@]3(O)C(=Nc4cc(Br)cc(OC)c43)[C@@H]2C[C@@H]1/C(=C\OC)C(=O)OC` [11-Br-7OH (24), 11-Br-7OH], the “antagonism at rKOR” value (rKOR) was “full inhibition”.
With `CC[C@@H]1CN2CC[C@@]3(O)C(=Nc4cc(F)cc(OC)c43)[C@@H]2C[C@@H]1/C(=C\OC)C(=O)OC` [11-F-7OH (22), 11-Fluoro-7-hydroxymitragynine] the “Antinociceptive effect, MOR KO” value (WT C57 and MOR KO mice; dose 0.1) was 40.7407 and 22.4138 and -2.941 and 22.6277 and 21.0084, the “Antinociceptive effect, MOR KO” value (WT C57 and MOR KO mice; dose 0.3) was 14.0741 and 33.6207 and 22.0588 and 13.1387 and 14.2857 and the “Antinociceptive effect, MOR KO” value (WT C57 and MOR KO mice; dose 1) was 30.3704 and 1.724 and 19.8529 and 38.6861 and -26.8908. For the same compound, the “Antinociceptive effect, MOR KO” value (WT C57 and MOR KO mice; dose 3) was 30.3704 and -6.897 and 22.0588 and 27.0073 and 1.681, the “Antinociceptive effect, MOR KO” value (WT C57 and MOR KO mice; dose 10) was 100 and 18.1034 and -5.882 and 26.2774 and -0.8403 and the “Antinociceptive effect, Wild Type” value (WT C57 and MOR KO mice; dose 0.1) was 7.432 and 25.9259 and 5.926 and 9.722 and -11.5108 and 0 and 3.521 and -7.971. The “Antinociceptive effect, Wild Type” value (WT C57 and MOR KO mice; dose 0.3) was 22.2973 and 19.2593 and 0 and 16.6667 and -0.7194 and 4.895 and -7.746 and 40.5797, the “Antinociceptive effect, Wild Type” value (WT C57 and MOR KO mice; dose 1) was 71.6216 and -1.481 and 44.4444 and 10.4167 and 5.036 and 71.3287 and 100 and 14.4927 and the “Antinociceptive effect, Wild Type” value (WT C57 and MOR KO mice; dose 3) was 100 (3×) and 5.185 and 43.7037 and 11.1111 and 41.0072 and -2.899. For the same compound, the “Antinociceptive effect, Wild Type” value (WT C57 and MOR KO mice; dose 10) was 62.1622 and 30.3704 and 25.1852 and 100 (2×) and 12.2302 and 25.1748 and 47.1014.
